Assay results: US20230266302A1, “SYNTHESIS AND USE OF N-BENZYL SULFONAMIDES” (THE UNIVERSITY OF TULSA, priority 2020, published 2023)

tested on: BxPC3 (pancreatic cancer); test: ATP level assay (CellTiter-Glo), percent of control; type: cell-based; conditions: Homo sapiens, BXPC-3, 2 h; compound alone, 100 uM, two hour incubation, control DMSO; read-out: POC (percent of control) BxPC3

Row | SMILES | activity at 100 µM [%]
1 | Cc1ccc(S(=O)(=O)NCc2nn(C)c3ccccc23)cc1 [Compound 8, 4-methyl-N-[(1-methyl-1H-indazol-3-yl)methyl]benzenesulfonamide] | 106

same assay, conditions: compound 100 uM + 2DG (about 10-20 mM), two hour incubation

Row | SMILES | POC (percent of control) BxPC3
2 | Cc1ccc(S(=O)(=O)NCc2nn(C)c3ccccc23)cc1 [Compound 8, 4-methyl-N-[(1-methyl-1H-indazol-3-yl)methyl]benzenesulfonamide] | 87.1% of control

same assay, conditions: compound 100 uM + rotenone (approximately 1.25 μM), two hour incubation

Row | SMILES | POC (percent of control) BxPC3
3 | Cc1ccc(S(=O)(=O)NCc2nn(C)c3ccccc23)cc1 [Compound 8, 4-methyl-N-[(1-methyl-1H-indazol-3-yl)methyl]benzenesulfonamide] | 93.5% of control

tested on: H293 (kidney cancer); test: as above; type: cell-based; conditions: 2 h; compound alone, 100 uM, two hour incubation, control DMSO; read-out: POC (percent of control) H293

Row | SMILES | activity at 100 µM [%]
4 | Cc1ccc(S(=O)(=O)NCc2nn(C)c3ccccc23)cc1 [Compound 8, 4-methyl-N-[(1-methyl-1H-indazol-3-yl)methyl]benzenesulfonamide] | 112

same assay, conditions: compound 100 uM + 2DG (about 10-20 mM), two hour incubation

Row | SMILES | POC (percent of control) H293
5 | Cc1ccc(S(=O)(=O)NCc2nn(C)c3ccccc23)cc1 [Compound 8, 4-methyl-N-[(1-methyl-1H-indazol-3-yl)methyl]benzenesulfonamide] | 83.5% of control

same assay, conditions: compound 100 uM + rotenone (approximately 1.25 μM), two hour incubation

Row | SMILES | POC (percent of control) H293
6 | Cc1ccc(S(=O)(=O)NCc2nn(C)c3ccccc23)cc1 [Compound 8, 4-methyl-N-[(1-methyl-1H-indazol-3-yl)methyl]benzenesulfonamide] | 87.1% of control

tested on: HDF (normal cells); test: as above; type: cell-based; conditions: 2 h; compound alone, 100 uM, two hour incubation, control DMSO; read-out: POC (percent of control) HDF

Row | SMILES | activity at 100 µM [%]
7 | Cc1ccc(S(=O)(=O)NCc2nn(C)c3ccccc23)cc1 [Compound 8, 4-methyl-N-[(1-methyl-1H-indazol-3-yl)methyl]benzenesulfonamide] | 99

same assay, conditions: compound 100 uM + 2DG (about 10-20 mM), two hour incubation

Row | SMILES | POC (percent of control) HDF
8 | Cc1ccc(S(=O)(=O)NCc2nn(C)c3ccccc23)cc1 [Compound 8, 4-methyl-N-[(1-methyl-1H-indazol-3-yl)methyl]benzenesulfonamide] | 91.3% of control

same assay, conditions: compound 100 uM + rotenone (approximately 1.25 μM), two hour incubation

Row | SMILES | POC (percent of control) HDF
9 | Cc1ccc(S(=O)(=O)NCc2nn(C)c3ccccc23)cc1 [Compound 8, 4-methyl-N-[(1-methyl-1H-indazol-3-yl)methyl]benzenesulfonamide] | 88.3% of control

tested on: HeLa (cervical cancer); test: as above; type: cell-based; conditions: Homo sapiens, HeLa, 2 h; compound alone, 100 uM, two hour incubation, control DMSO; read-out: POC (percent of control) HeLa

Row | SMILES | activity at 100 µM [%]
10 | Cc1ccc(S(=O)(=O)NCc2nn(C)c3ccccc23)cc1 [Compound 8, 4-methyl-N-[(1-methyl-1H-indazol-3-yl)methyl]benzenesulfonamide] | 106

same assay, conditions: compound 100 uM + 2DG (about 10-20 mM), two hour incubation

Row | SMILES | POC (percent of control) HeLa
11 | Cc1ccc(S(=O)(=O)NCc2nn(C)c3ccccc23)cc1 [Compound 8, 4-methyl-N-[(1-methyl-1H-indazol-3-yl)methyl]benzenesulfonamide] | 80.8% of control

same assay, conditions: compound 100 uM + rotenone (approximately 1.25 μM), two hour incubation

Row | SMILES | POC (percent of control) HeLa
12 | Cc1ccc(S(=O)(=O)NCc2nn(C)c3ccccc23)cc1 [Compound 8, 4-methyl-N-[(1-methyl-1H-indazol-3-yl)methyl]benzenesulfonamide] | 99.1% of control

tested on: MCF10A (non-cancerous breast); test: as above; type: cell-based; conditions: Homo sapiens, MCF-10A, 2 h; compound alone, 100 uM, two hour incubation, control DMSO; read-out: POC (percent of control) MCF10A

Row | SMILES | activity at 100 µM [%]
13 | Cc1ccc(S(=O)(=O)NCc2nn(C)c3ccccc23)cc1 [Compound 8, 4-methyl-N-[(1-methyl-1H-indazol-3-yl)methyl]benzenesulfonamide] | 94.6

same assay, conditions: compound 100 uM + 2DG (about 10-20 mM), two hour incubation

Row | SMILES | POC (percent of control) MCF10A
14 | Cc1ccc(S(=O)(=O)NCc2nn(C)c3ccccc23)cc1 [Compound 8, 4-methyl-N-[(1-methyl-1H-indazol-3-yl)methyl]benzenesulfonamide] | 77.9% of control

same assay, conditions: compound 100 uM + rotenone (approximately 1.25 μM), two hour incubation

Row | SMILES | POC (percent of control) MCF10A
15 | Cc1ccc(S(=O)(=O)NCc2nn(C)c3ccccc23)cc1 [Compound 8, 4-methyl-N-[(1-methyl-1H-indazol-3-yl)methyl]benzenesulfonamide] | 94.4% of control

tested on: MCF7 (breast cancer); test: as above; type: cell-based; conditions: Homo sapiens, MCF7, 2 h; compound alone, 100 uM, two hour incubation, control DMSO; read-out: POC (percent of control) MCF7

Row | SMILES | activity at 100 µM [%]
16 | Cc1ccc(S(=O)(=O)NCc2nn(C)c3ccccc23)cc1 [Compound 8, 4-methyl-N-[(1-methyl-1H-indazol-3-yl)methyl]benzenesulfonamide] | 140

same assay, conditions: compound 100 uM + 2DG (about 10-20 mM), two hour incubation

Row | SMILES | POC (percent of control) MCF7
17 | Cc1ccc(S(=O)(=O)NCc2nn(C)c3ccccc23)cc1 [Compound 8, 4-methyl-N-[(1-methyl-1H-indazol-3-yl)methyl]benzenesulfonamide] | 86.2% of control

same assay, conditions: compound 100 uM + rotenone (approximately 1.25 μM), two hour incubation

Row | SMILES | POC (percent of control) MCF7
18 | Cc1ccc(S(=O)(=O)NCc2nn(C)c3ccccc23)cc1 [Compound 8, 4-methyl-N-[(1-methyl-1H-indazol-3-yl)methyl]benzenesulfonamide] | 116.7% of control

tested on: MDA-MB (breast cancer); test: as above; type: cell-based; conditions: 2 h; compound alone, 100 uM, two hour incubation, control DMSO; read-out: POC (percent of control) MDA-MB

Row | SMILES | activity at 100 µM [%]
19 | Cc1ccc(S(=O)(=O)NCc2nn(C)c3ccccc23)cc1 [Compound 8, 4-methyl-N-[(1-methyl-1H-indazol-3-yl)methyl]benzenesulfonamide] | 93.9

same assay, conditions: compound 100 uM + 2DG (about 10-20 mM), two hour incubation

Row | SMILES | POC (percent of control) MDA-MB
20 | Cc1ccc(S(=O)(=O)NCc2nn(C)c3ccccc23)cc1 [Compound 8, 4-methyl-N-[(1-methyl-1H-indazol-3-yl)methyl]benzenesulfonamide] | 91.7% of control

same assay, conditions: compound 100 uM + rotenone (approximately 1.25 μM), two hour incubation

Row | SMILES | POC (percent of control) MDA-MB
21 | Cc1ccc(S(=O)(=O)NCc2nn(C)c3ccccc23)cc1 [Compound 8, 4-methyl-N-[(1-methyl-1H-indazol-3-yl)methyl]benzenesulfonamide] | 86.2% of control

tested on: NCI-H196 (lung cancer); test: as above; type: cell-based; conditions: NCI-H196, 2 h; compound alone, 100 uM, two hour incubation, control DMSO; read-out: POC (percent of control) NCI-H196

Row | SMILES | activity at 100 µM [%]
22 | Cc1ccc(S(=O)(=O)NCc2nn(C)c3ccccc23)cc1 [Compound 8, 4-methyl-N-[(1-methyl-1H-indazol-3-yl)methyl]benzenesulfonamide] | 91.1

same assay, conditions: compound 100 uM + 2DG (about 10-20 mM), two hour incubation

Row | SMILES | POC (percent of control) NCI-H196
23 | Cc1ccc(S(=O)(=O)NCc2nn(C)c3ccccc23)cc1 [Compound 8, 4-methyl-N-[(1-methyl-1H-indazol-3-yl)methyl]benzenesulfonamide] | 99.2% of control

same assay, conditions: compound 100 uM + rotenone (approximately 1.25 μM), two hour incubation

Row | SMILES | POC (percent of control) NCI-H196
24 | Cc1ccc(S(=O)(=O)NCc2nn(C)c3ccccc23)cc1 [Compound 8, 4-methyl-N-[(1-methyl-1H-indazol-3-yl)methyl]benzenesulfonamide] | 95.1% of control

tested on: PC3 (prostate cancer); test: as above; type: cell-based; conditions: 2 h; compound alone, 100 uM, two hour incubation, control DMSO; read-out: POC (percent of control) PC3

Row | SMILES | activity at 100 µM [%]
25 | Cc1ccc(S(=O)(=O)NCc2nn(C)c3ccccc23)cc1 [Compound 8, 4-methyl-N-[(1-methyl-1H-indazol-3-yl)methyl]benzenesulfonamide] | 109

same assay, conditions: compound 100 uM + 2DG (about 10-20 mM), two hour incubation

Row | SMILES | POC (percent of control) PC3
26 | Cc1ccc(S(=O)(=O)NCc2nn(C)c3ccccc23)cc1 [Compound 8, 4-methyl-N-[(1-methyl-1H-indazol-3-yl)methyl]benzenesulfonamide] | 87.9% of control

same assay, conditions: compound 100 uM + rotenone (approximately 1.25 μM), two hour incubation

Row | SMILES | POC (percent of control) PC3
27 | Cc1ccc(S(=O)(=O)NCc2nn(C)c3ccccc23)cc1 [Compound 8, 4-methyl-N-[(1-methyl-1H-indazol-3-yl)methyl]benzenesulfonamide] | 108.3% of control

tested on: SkBr3 (breast cancer); test: as above; type: cell-based; conditions: Homo sapiens, SK-BR-3, 2 h; compound alone, 100 uM, two hour incubation, control DMSO; read-out: POC (percent of control) SkBr3

Row | SMILES | activity at 100 µM [%]
28 | Cc1ccc(S(=O)(=O)NCc2nn(C)c3ccccc23)cc1 [Compound 8, 4-methyl-N-[(1-methyl-1H-indazol-3-yl)methyl]benzenesulfonamide] | 88.8

same assay, conditions: compound 100 uM + 2DG (about 10-20 mM), two hour incubation

Row | SMILES | POC (percent of control) SkBr3
29 | Cc1ccc(S(=O)(=O)NCc2nn(C)c3ccccc23)cc1 [Compound 8, 4-methyl-N-[(1-methyl-1H-indazol-3-yl)methyl]benzenesulfonamide] | 97.1% of control

same assay, conditions: compound 100 uM + rotenone (approximately 1.25 μM), two hour incubation

Row | SMILES | POC (percent of control) SkBr3
30 | Cc1ccc(S(=O)(=O)NCc2nn(C)c3ccccc23)cc1 [Compound 8, 4-methyl-N-[(1-methyl-1H-indazol-3-yl)methyl]benzenesulfonamide] | 103.7% of control

tested on: T47D (breast cancer); test: as above; type: cell-based; conditions: Homo sapiens, T47D, 2 h; compound alone, 100 uM, two hour incubation, control DMSO; read-out: POC (percent of control) T47D

Row | SMILES | activity at 100 µM [%]
31 | Cc1ccc(S(=O)(=O)NCc2nn(C)c3ccccc23)cc1 [Compound 8, 4-methyl-N-[(1-methyl-1H-indazol-3-yl)methyl]benzenesulfonamide] | 64.1

same assay, conditions: compound 100 uM + 2DG (about 10-20 mM), two hour incubation

Row | SMILES | POC (percent of control) T47D
32 | Cc1ccc(S(=O)(=O)NCc2nn(C)c3ccccc23)cc1 [Compound 8, 4-methyl-N-[(1-methyl-1H-indazol-3-yl)methyl]benzenesulfonamide] | 94.6% of control

same assay, conditions: compound 100 uM + rotenone (approximately 1.25 μM), two hour incubation

Row | SMILES | POC (percent of control) T47D
33 | Cc1ccc(S(=O)(=O)NCc2nn(C)c3ccccc23)cc1 [Compound 8, 4-methyl-N-[(1-methyl-1H-indazol-3-yl)methyl]benzenesulfonamide] | 101.2% of control
